Settings: Gas

FC(F)C(F)(F)F [pentafluoroethane]
Settings	speed of sound [m/s]
277.16 K, 20.94 kPa	144.94
277.16 K, 40.92 kPa	144.49
277.16 K, 60.65 kPa	144.05
277.16 K, 80.97 kPa	143.59
277.16 K, 101.09 kPa	143.13
277.16 K, 121.01 kPa	142.67
277.16 K, 141.08 kPa	142.2
277.16 K, 161.07 kPa	141.73
277.16 K, 180.84 kPa	141.26
277.16 K, 198.8 kPa	140.83
303.14 K, 10.51 kPa	151.5
303.14 K, 20.76 kPa	151.31
303.14 K, 40.75 kPa	150.97
303.14 K, 60.79 kPa	150.62
303.14 K, 80.27 kPa	150.28
303.14 K, 100.78 kPa	149.93
303.14 K, 120.91 kPa	149.57
303.14 K, 140.84 kPa	149.22
303.14 K, 160.84 kPa	148.87
303.14 K, 180.99 kPa	148.5
303.14 K, 200.32 kPa	148.16
303.14 K, 300.92 kPa	146.32
303.14 K, 398.68 kPa	144.47
303.14 K, 465.23 kPa	143.19
313.15 K, 10.5 kPa	153.84
313.15 K, 20.68 kPa	153.68
313.15 K, 40.59 kPa	153.37
313.15 K, 60.28 kPa	153.06
313.15 K, 80.59 kPa	152.74
313.15 K, 100.57 kPa	152.43
313.15 K, 120.77 kPa	152.11
313.15 K, 140.78 kPa	151.79
313.15 K, 160.71 kPa	151.47
313.15 K, 180.78 kPa	151.14
313.15 K, 200.47 kPa	150.82
313.15 K, 300.67 kPa	149.18
313.15 K, 400.7 kPa	147.49
313.15 K, 480.34 kPa	146.12
323.14 K, 10.7 kPa	156.16
323.14 K, 20.42 kPa	156.02
323.14 K, 40.64 kPa	155.73
323.14 K, 60.8 kPa	155.44
323.14 K, 80.84 kPa	155.16
323.14 K, 100.74 kPa	154.87
323.14 K, 120.86 kPa	154.58
323.14 K, 140.92 kPa	154.29
323.14 K, 160.95 kPa	154
323.14 K, 180.33 kPa	153.71
323.14 K, 200.71 kPa	153.41
323.14 K, 300.75 kPa	151.93
323.14 K, 400.83 kPa	150.41
323.14 K, 501.38 kPa	148.85
343.13 K, 40.76 kPa	160.33
343.13 K, 60.62 kPa	160.09
343.13 K, 80.21 kPa	159.86
343.13 K, 100.97 kPa	159.61
343.13 K, 120.73 kPa	159.37
343.13 K, 140.89 kPa	159.13
343.13 K, 160.51 kPa	158.89
343.13 K, 180.9 kPa	158.65
343.13 K, 197.5 kPa	158.44
343.13 K, 300.29 kPa	157.19
343.13 K, 400.48 kPa	155.94
343.13 K, 500.26 kPa	154.68
343.13 K, 600.3 kPa	153.41
343.14 K, 20.77 kPa	160.58
343.14 K, 40.77 kPa	160.34
343.14 K, 59.94 kPa	160.11
343.14 K, 80.48 kPa	159.86
343.14 K, 100.55 kPa	159.62
343.14 K, 120.9 kPa	159.38
343.14 K, 140.63 kPa	159.14
343.14 K, 160.64 kPa	158.9
343.14 K, 180.84 kPa	158.65
343.14 K, 200.46 kPa	158.41
343.14 K, 300.55 kPa	157.19
343.14 K, 399.77 kPa	155.96
343.14 K, 501.32 kPa	154.68

Reference: the NIST ThermoML archive (doi:10.1021/je034213q)
